Counter-ions that a name gives are not always drawn.
System: Acinetobacter baumannii ATCC 17961
Assay: Antimicrobial susceptibility testing: 90% growth inhibitory concentration (IC90) determination
Format: cell-based
Details: ATCC17961, Acinetobacter baumannii ATCC 17961, Iso-Sensitest broth, read-out: ATCC 17961 IC90
Method: Antimicrobial Susceptibility Testing:
90% Growth Inhibitory Concentration (IC90) Determination
The in vitro antimicrobial activity of the compounds was determined according to the following procedure:
The assay used a 10-points Iso-Sensitest broth medium to measure quantitatively the in vitro activity of the compounds against Acinetobacter baumannii ATCC 17961.
Stock compounds in DMSO were serially twofold diluted (e.g. range from 50 to 0.097 μM final concentration) in 384 wells microtiter plates and inoculated with 49 μl the bacterial suspension in Iso-Sensitest medium to have a final cell concentration of ˜5×10^(5) CFU/ml in a final volume/well of 50 ul/well. Microtiter plates were incubated at 35±2° C.
Bacterial cell growth was determined with the measurement of optical density at X=600 nm each 20 minutes over a time course of 16 h. Growth inhibition was calculated during the logarithmic growth of the bacterial cells with determination of the concentration inhibiting 50% (IC50) and 90% (IC90) of the growth.
Table 1 provides the 90% growth inhibitory concentrations (IC90) in micromoles per liter of the compounds of present disclosure obtained against the strain Acinetobacter baumannii ATCC 17961.

| Compound | IC90 |
| --- | --- |
| Cn1c(-c2cn(C3CC3)nc2C(F)(F)F)cnc1C(=O)Nc1ccc(C(=O)N2CCC3(CCNCC3)CC2)c(Cl)c1 [Example 249, N-(3-chloro-4-(3,9-diazaspiro[5.5]undecane-3-carbonyl)phenyl)-5-(1-cyclopropyl-3-(trifluoromethyl)-1H-pyrazol-4-yl)-1-methyl-1H-imidazole-2-carboxamide hydrochloride] | 0.3 µM |
| Cn1c(-c2cn(C3CC3)nc2C(F)(F)F)cnc1C(=O)Nc1ccc(C(=O)NC2CC3(CC(N)C3)C2)c(Cl)c1 (stereo not drawn) [Example 317, N-(4-((6-aminospiro[3.3]heptan-2-yl)carbamoyl)-3-chlorophenyl)-5-(1-cyclopropyl-3-(trifluoromethyl)-1H-pyrazol-4-yl)-1-methyl-1H-imidazole-2-carboxamide hydrochloride] | 0.393 µM |
| Cn1c(-c2cn(CC(F)F)nc2C(F)(F)F)cnc1C(=O)Nc1ccc(C(=O)NC2C3CN(C(=O)C4CCNCC4)CC32)c(Cl)c1 (stereo not drawn) [Example 235, N-(3-chloro-4-((3-(piperidine-4-carbonyl)-3-azabicyclo[3.1.0]hexan-6-yl)carbamoyl)phenyl)-5-(1-(2,2-difluoroethyl)-3-(trifluoromethyl)-1H-pyrazol-4-yl)-1-methyl-1H-imidazole-2-carboxamide formate] | 0.268 µM |
| Cn1c(-c2cn(C3CC3)nc2C(F)(F)F)cnc1C(=O)Nc1ccc(C(=O)N2CCN(C(=O)C3CCNCC3)CC2)c(Cl)c1 [Example 54, N-(3-Chloro-4-(4-(piperidine-4-carbonyl)piperazine-1-carbonyl)phenyl)-5-(1-cyclopropyl-3-(trifluoromethyl)-1H-pyrazol-4-yl)-1-methyl-1H-imidazole-2-carboxamide hydrochloride] | 0.335 µM |
| Cn1c(-c2cn(CC3CC3)nc2C(F)(F)F)cnc1C(=O)Nc1ccc(C(=O)N2CCN(C(=O)CN)CC2)c(Cl)c1 [Example 209, N-(3-chloro-4-(4-glycylpiperazine-1-carbonyl)phenyl)-5-(1-(cyclopropylmethyl)-3-(trifluoromethyl)-1H-pyrazol-4-yl)-1-methyl-1H-imidazole-2-carboxamide] | 0.23 µM |
| Cn1c(-c2cn(C3CS(=O)(=O)C3)nc2C(F)(F)F)cnc1C(=O)Nc1ccc(C(=O)N2CCN(C(=O)C3CCNCC3)CC2)c(Cl)c1 [Example 16, N-(3-chloro-4-(4-(piperidine-4-carbonyl)piperazine-1-carbonyl)phenyl)-5-(1-(1,1-dioxidothietan-3-yl)-3-(trifluoromethyl)-1H-pyrazol-4-yl)-1-methyl-1H-imidazole-2-carboxamide] | 1.36 µM |
| Cn1c(-c2cn(C3CC3)nc2C(F)(F)F)cnc1C(=O)Nc1ccc(C(=O)N2CCN(C(=O)N[C@H]3C[C@@H](N)C3)CC2)c(Cl)c1 [Example 240, rac-N-((1s,3s)-3-aminocyclobutyl)-4-(2-chloro-4-(5-(1-cyclopropyl-3-(trifluoromethyl)-1H-pyrazol-4-yl)-1-methyl-1H-imidazole-2-carboxamido)benzoyl)piperazine-1-carboxamide formate] | 0.274 µM |
| Cn1c(-c2cn(CCF)nc2C(F)(F)F)cnc1C(=O)Nc1ccc(C(=O)N2CCN(C(=O)C3CCNCC3)CC2)c(Cl)c1 [Example 11, N-(3-chloro-4-(4-(piperidine-4-carbonyl)piperazine-1-carbonyl)phenyl)-5-(1-(2-fluoroethyl)-3-(trifluoromethyl)-1H-pyrazol-4-yl)-1-methyl-1H-imidazole-2-carboxamide hydrochloride] | 0.466 µM |
| Cn1c(-c2cn(C3CC3)nc2C(F)(F)F)cnc1C(=O)Nc1ccc(C(=O)N2CCN(C(=O)NCC3(O)CCNCC3)CC2)c(Cl)c1 [Example 320, 4-(2-chloro-4-(5-(1-cyclopropyl-3-(trifluoromethyl)-1H-pyrazol-4-yl)-1-methyl-1H-imidazole-2-carboxamido)benzoyl)-N-((4-hydroxypiperidin-4-yl)methyl)piperazine-1-carboxamide formate] | 0.403 µM |
| C#CCn1cc(-c2cnc(C(=O)Nc3ccc(C(=O)NC[C@@H]4CCNC4)c(Cl)c3)n2C)c(C(F)(F)F)n1 [Example 31, (R)—N-(3-Chloro-4-((pyrrolidin-3-ylmethyl)carbamoyl)phenyl)-1-methyl-5-(1-(prop-2-yn-1-yl)-3-(trifluoromethyl)-1H-pyrazol-4-yl)-1H-imidazole-2-carboxamide hydrochloride] | 0.962 µM |
| C[C@H](N)C(=O)N[C@H]1CC[C@@H](NC(=O)c2ccc(NC(=O)c3ncc(-c4cn(CC#N)nc4C(F)(F)F)n3C)cc2Cl)CC1 [Example 324, N-[4-[[4-[[(2S)-2-aminopropanoyl]amino]cyclo-hexyl]carbamoyl]-3-chlorophenyl]-5-[1-(cyanomethyl)-3-(trifluoromethyl)pyrazol-4-yl]-1-methylimidazole-2-carboxamide;2,2,2-trifluoroacetic acid] | 0.408 µM |
| Cn1c(-c2cn(Cc3ccccc3)nc2C(F)(F)F)cnc1C(=O)Nc1ccc(C(=O)N2CCN(C(=O)C3CCNCC3)CC2)c(Cl)c1 [Example 241, 5-(1-benzyl-3-(trifluoromethyl)-1H-pyrazol-4-yl)-N-(3-chloro-4-(4-(piperidine-4-carbonyl)piperazine-1-carbonyl)phenyl)-1-methyl-1H-imidazole-2-carboxamide hydrochloride] | 0.281 µM |
| C=C(C)Cn1cc(-c2cnc(C(=O)Nc3ccc(C(=O)NCCCCN)c(Cl)c3)n2C)c(C(F)(F)F)n1 [Example 199, N-(4-((4-aminobutyl)carbamoyl)-3-chlorophenyl)-1-methyl-5-(1-(2-methylallyl)-3-(trifluoromethyl)-1H-pyrazol-4-yl)-1H-imidazole-2-carboxamide tris(2,2,2-trifluoroacetate)] | 0.213 µM |
| Cn1c(-c2cn(C3CC3)nc2C(F)(F)F)cnc1C(=O)Nc1ccc(C(=O)N2CCN(C(=O)NC3CCNC3)CC2)c(Cl)c1 (stereo not drawn) [Example 236, 4-[2-chloro-4-[[5-[1-cyclopropyl-3-(trifluoromethyl)pyrazol-4-yl]-1-methylimidazole-2-carbonyl]amino]benzoyl]-N-pyrrolidin-3-ylpiperazine-1-carboxamide;formic acid] | 0.27 µM |
| Cn1c(-c2cn(C3CC3)nc2C(F)(F)F)cnc1C(=O)Nc1ccc(C(=O)N2CCN(C(=O)NCC3CNC3)CC2)c(Cl)c1 [Example 214, N-(azetidin-3-ylmethyl)-4-(2-chloro-4-(5-(1-cyclopropyl-3-(trifluoromethyl)-1H-pyrazol-4-yl)-1-methyl-1H-imidazole-2-carboxamido)benzoyl)piperazine-1-carboxamide formate] | 0.241 µM |
| C=CCn1cc(-c2cnc(C(=O)Nc3ccc(C(=O)N[C@H]4[C@@H]5CN(C(=O)N[C@@H]6CNC[C@H]6O)C[C@@H]54)c(Cl)c3)n2C)c(C(F)(F)F)n1 [Example 387, (1R,5S,6s)-6-(4-(5-(1-allyl-3-(trifluoromethyl)-1H-pyrazol-4-yl)-1-methyl-1H-imidazole-2-carboxamido)-2-chlorobenzamido)-N-((3R,4R)-4-hydroxypyrrolidin-3-yl)-3-azabicyclo[3.1.0]hexane-3-carboxamide formate] | 0.13 µM |
| Cn1c(-c2cn(CC3CC3)nc2C(F)(F)F)cnc1C(=O)Nc1ccc(C(=O)N2CCN(C(=O)N[C@H]3C[C@@H](N)C3)CC2)c(Cl)c1 [Example 203, rac-N-((1s,3s)-3-aminocyclobutyl)-4-(2-chloro-4-(5-(1-(cyclopropylmethyl)-3-(trifluoromethyl)-1H-pyrazol-4-yl)-1-methyl-1H-imidazole-2-carboxamido)benzoyl)piperazine-1-carboxamide] | 0.222 µM |
| Cn1c(-c2cn(C3CC3(F)F)nc2C(F)(F)F)cnc1C(=O)Nc1ccc(C(=O)NC2(C)CCN(C(=O)N[C@H]3C[C@@H](N)C3)CC2)c(Cl)c1 (mixture of isomers) [Example 333, rac-N-((1s,3s)-3-aminocyclobutyl)-4-(2-chloro-4-(5-(1-(2,2-difluorocyclopropyl)-3-(trifluoromethyl)-1H-pyrazol-4-yl)-1-methyl-1H-imidazole-2-carboxamido)benzamido)-4-methylpiperidine-1-carboxamide formate] | 0.422 µM |
| CCc1cc(NC(=O)c2ncc(-c3cn(CC#N)nc3C(F)(F)F)n2C)ccc1C(=O)N1CCN(C(=O)N2CCC(C)(N)CC2)CC1 [Example 136, N-[4-[4-(4-amino-4-methylpiperidine-1-carbonyl)piperazine-1-carbonyl]-3-ethylphenyl]-5-[1-(cyanomethyl)-3-(trifluoromethyl)pyrazol-4-yl]-1-methylimidazole-2-carboxamide;formic acid] | 0.741 µM |
| Cn1c(-c2cn(C3CC3(F)F)nc2C(F)(F)F)cnc1C(=O)Nc1ccc(C(=O)NCC2CC3CN(C(=O)N[C@H]4CNC[C@@H]4O)CC3C2)c(Cl)c1 (mixture of isomers) [Example 310, rac-5-((2-chloro-4-(5-(1-(2,2-difluorocyclopropyl)-3-(trifluoromethyl)-1H-pyrazol-4-yl)-1-methyl-1H-imidazole-2-carboxamido)benzamido)methyl)-N-((3R,4R)-4-hydroxypyrrolidin-3-yl)hexahydrocyclopenta[c]pyrrole-2(1H)-carboxamide formate] | 0.379 µM |

Same assay, conditions: Acinetobacter baumannii, ATCC17961, read-out: ATCC 17961 IC90, Acinetobacter baumannii ATCC 17961, Iso-Sensitest broth

| Compound | IC90 |
| --- | --- |
| Cn1c(-c2c[nH]nc2C(F)(F)F)cnc1C(=O)Nc1ccc(C(=O)N2CCNCC2)c(Cl)c1 [Example 35, N-[3-chloro-4-(piperazine-1-carbonyl)phenyl]-1-methyl-5-[3-(trifluoromethyl)-1H-pyrazol-4-yl]imidazole-2-carboxamide hydrochloride] | 3.7 µM |

Reference: patent publication US11390604B2 (Hoffmann-La Roche Inc., priority 2019, dated 2022)
